Experimental data as given in patent US20150105252A1, “SUBSTITUTED PYRAZOLES AS HERBICIDES” (E I DU PONT DE NEMOURS AND COMPANY, priority 2013, published 2015).

Experiments:
[1] = tested on: ragweed; assay: Test C postemergence; type: in vivo, Ambrosia elation; conditions: for Plant response rating, Ragweed / Ragweed plant response rating: postemergence; for Plant response rating (scale of 0 to 100 where 0 is no effect and 100 is complete control), Ragweed: Postemergence, 31 g ai/ha, visually evaluated after 13 to 15 days; for Ragweed plant response rating: 62 g ai/ha, scale 0 to 100
In short: (§1)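 In this greenhouse assay, seeded soil (loam plus sand) or emerged seedlings in peat-vermiculite medium were treated with formulated compound. Roughly two weeks later (13–15 days), each species was scored visually relative to controls, from 0 for no effect to 100 for complete control.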

[2] = tested on: oilseed rape; assay: Test C preemergence; type: in vivo, Brassica napus; conditions: for Oilseed Rape plant response rating / Plant response rating, Oilseed Rape: preemergence; for Plant response rating, Oilseed Rape: scale 0 to 100, 0 = no effect, 100 = complete control; for Plant response rating (scale of 0 to 100), Oilseed Rape: Preemergence
In short: as §1

[3] = tested on: ragweed; assay: Test C preemergence; type: in vivo, Ambrosia elation; conditions: for Ragweed plant response rating / Plant response rating, Ragweed: preemergence; for Plant response rating, Ragweed: scale 0 to 100, 0 = no effect, 100 = complete control; for Plant response rating (scale of 0 to 100), Ragweed: Preemergence
In short: as §1

[4] = tested on: pigweed; assay: Test A preemergence; type: in vivo, Amaranthus retroflexus; conditions: preemergence
In short: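 Growth medium: loam soil blended with sand. Preemergence treatment used a directed soil spray right after planting; postemergence treatment targeted seedlings at one to two leaves (2–10 cm height). Response was judged by eye relative to untreated plants about 10 days later on a 0–100 control scale.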

[5] = tested on: nutsedge, yellow; assay: Test C postemergence; type: in vivo, Cyperus esculentus; conditions: for Plant response rating (scale of 0 to 100 where 0 is no effect and 100 is complete control), Nutsedge, Yellow: Postemergence, 31 g ai/ha, visually evaluated after 13 to 15 days; for Nutsedge, Yellow plant response rating / Plant response rating, Nutsedge, Yellow: postemergence; for Nutsedge, Yellow plant response rating: 62 g ai/ha, scale 0 to 100
In short: as §1

[6] = tested on: oat, wild; assay: Test C postemergence; type: in vivo, Avena fatua; conditions: for Plant response rating (scale of 0 to 100 where 0 is no effect and 100 is complete control), Oat, Wild: Postemergence, 31 g ai/ha, visually evaluated after 13 to 15 days; for Oat, Wild plant response rating / Plant response rating, Oat, Wild: postemergence; for Oat, Wild plant response rating: 62 g ai/ha, scale 0 to 100
In short: as §1

[7] = tested on: barnyardgrass; assay: Test B flood; type: in vivo, Echinochloa crus-galli; conditions: 250 g ai/ha, visual rating on 0 to 100 scale (0 no effect, 100 complete control), 13 to 15 days
In short: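 Each compound is applied to the floodwater of pots holding 2-leaf seedlings, water standing 3 cm over the soil throughout. Plants stay in a greenhouse 13 to 15 days before visual scoring against controls from 0 (no effect) to 100 (complete control).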

[8] = tested on: foxtail, giant; assay: Test C preemergence; type: in vivo, Setaria faberii; conditions: for Foxtail, Giant plant response rating / Plant response rating, Foxtail, Giant: preemergence; for Plant response rating, Foxtail, Giant: scale 0 to 100, 0 = no effect, 100 = complete control; for Plant response rating (scale of 0 to 100), Foxtail, Giant: Preemergence
In short: as §1

[9] = tested on: pigweed; assay: Test C preemergence; type: in vivo, Amaranthus retroflexus; conditions: for Pigweed plant response rating / Plant response rating, Pigweed: preemergence; for Plant response rating, Pigweed: scale 0 to 100, 0 = no effect, 100 = complete control; for Plant response rating (scale of 0 to 100), Pigweed: Preemergence
In short: as §1

[10] = tested on: soybean; assay: Test C postemergence; type: in vivo, Glycine max; conditions: for Plant response rating, Soybean / Soybean plant response rating: postemergence; for Plant response rating (scale of 0 to 100 where 0 is no effect and 100 is complete control), Soybean: Postemergence, 31 g ai/ha, visually evaluated after 13 to 15 days
In short: as §1

[11] = tested on: kochia; assay: Test C postemergence; type: in vivo, Kochia scoparia; conditions: for Plant response rating (scale of 0 to 100 where 0 is no effect and 100 is complete control), Kochia: Postemergence, 31 g ai/ha, visually evaluated after 13 to 15 days; for Kochia plant response rating / Plant response rating, Kochia: postemergence; for Kochia plant response rating: 62 g ai/ha, scale 0 to 100
In short: as §1

[12] = tested on: oilseed rape; assay: Test C postemergence; type: in vivo, Brassica napus; conditions: for Oilseed Rape plant response rating / Plant response rating, Oilseed Rape: postemergence; for Oilseed Rape plant response rating: 62 g ai/ha, scale 0 to 100; for Plant response rating (scale of 0 to 100 where 0 is no effect and 100 is complete control), Oilseed Rape: Postemergence, 31 g ai/ha, visually evaluated after 13 to 15 days
In short: as §1

[13] = 250 g ai/ha, scale 0 to 100 (0 no effect, 100 complete control)
[14] = 125 g ai/ha, scale 0 to 100, 0 no effect, 100 complete control
[15] = 31 g ai/ha, visual rating, scale 0 to 100 (0 no effect, 100 complete control), 13 to 15 days
[16] = 62 g ai/ha, scale 0 to 100 (0 no effect, 100 complete control), 13 to 15 days
[17] = 250 g ai/ha, scale 0 to 100, 0 is no effect, 100 is complete control
[18] = 500 g ai/ha, visual injury after approx. 10 days, 0 to 100 scale (0 no effect, 100 complete control)
[19] = 125 g ai/ha, scale 0 to 100, 0 is no effect, 100 is complete control
[20] = 125 g ai/ha, visual injury, 0 to 100 scale, approx. 10 days

CCCc1cc(C(=O)NC2CC2)nn1Cc1cc(C(F)(F)F)nn1C [Compound 202]
Plant response rating, Ragweed [1, 13]: 80 | Plant response rating, Ragweed [1, 14]: 65 | Oilseed Rape plant response rating [2, 15]: 100 | Oilseed Rape plant response rating [2, 16]: 100 | Plant response rating, Oilseed Rape ([2]; 125 g ai/ha, 13 to 15 days): 100 | Oilseed Rape plant response rating [2, 17]: 100 | Ragweed plant response rating [3, 15]: 75 | Ragweed plant response rating [3, 16]: 95 | Plant response rating, Ragweed ([3]; 125 g ai/ha, 13 to 15 days): 95 | Ragweed plant response rating [3, 17]: 100 | Pigweed plant response rating (0 to 100 scale) ([4]; 125 g ai/ha, visual injury approx. 10 days after treatment): 100 | Pigweed plant response rating [4, 18]: 100 | Plant response rating (scale of 0 to 100 where 0 is no effect and 100 is complete control), Nutsedge, Yellow [5]: 0 | Nutsedge, Yellow plant response rating [5]: 5 | Plant response rating, Nutsedge, Yellow [5, 13]: 20 | Plant response rating, Nutsedge, Yellow [5, 14]: 10 | Plant response rating (scale of 0 to 100 where 0 is no effect and 100 is complete control), Oat, Wild [6]: 5 | Oat, Wild plant response rating [6]: 5 | Plant response rating, Oat, Wild [6, 13]: 30 | Plant response rating, Oat, Wild [6, 14]: 10 | Plant response rating, Barnyardgrass [7]: 30 | Foxtail, Giant plant response rating [8, 15]: 100 | Foxtail, Giant plant response rating [8, 16]: 100 | Plant response rating, Foxtail, Giant ([8]; 125 g ai/ha, 13 to 15 days): 100 | Foxtail, Giant plant response rating [8, 17]: 100 | Pigweed plant response rating [9, 15]: 100 | Pigweed plant response rating [9, 16]: 100 | Plant response rating, Pigweed ([9]; 125 g ai/ha, 13 to 15 days): 100 | Pigweed plant response rating [9, 17]: 100 | Plant response rating, Soybean [10, 13]: 98 | Soybean plant response rating [10, 14]: 98 | Plant response rating (scale of 0 to 100 where 0 is no effect and 100 is complete control), Kochia [11]: 85 | Kochia plant response rating [11]: 90 | Plant response rating, Kochia [11, 13]: 90 | Plant response rating, Kochia [11, 14]: 90 | Oilseed Rape plant response rating [12]: 30 | Plant response rating, Oilseed Rape [12, 13]: 80 | Plant response rating, Oilseed Rape [12, 14]: 65

CCc1cc(C(=O)NCC(F)(F)F)nn1Cc1nc(C(F)(F)F)nn1C [Compound 107]
Plant response rating (scale of 0 to 100 where 0 is no effect and 100 is complete control), Ragweed [1]: 10 | Ragweed plant response rating [1]: 65 | Plant response rating, Ragweed [1, 13]: 90 | Plant response rating, Ragweed [1, 14]: 85 | Plant response rating (scale of 0 to 100), Oilseed Rape ([2]; 250 g ai/ha): 100 | Oilseed Rape plant response rating [2, 15]: 98 | Oilseed Rape plant response rating [2, 16]: 100 | Oilseed Rape plant response rating [2, 19]: 100 | Plant response rating (scale of 0 to 100), Ragweed ([3]; 250 g ai/ha): 100 | Ragweed plant response rating [3, 15]: 50 | Ragweed plant response rating [3, 16]: 98 | Ragweed plant response rating [3, 19]: 100 | Pigweed plant response rating [4, 20]: 100 | Pigweed plant response rating [4, 18]: 100 | Plant response rating (scale of 0 to 100 where 0 is no effect and 100 is complete control), Nutsedge, Yellow [5]: 0 | Nutsedge, Yellow plant response rating [5]: 0 | Plant response rating, Nutsedge, Yellow [5, 13]: 40 | Plant response rating, Nutsedge, Yellow [5, 14]: 5 | Plant response rating (scale of 0 to 100 where 0 is no effect and 100 is complete control), Oat, Wild [6]: 5 | Oat, Wild plant response rating [6]: 5 | Plant response rating, Oat, Wild [6, 13]: 40 | Plant response rating, Oat, Wild [6, 14]: 5 | Plant response rating, Barnyardgrass [7]: 40 | Plant response rating (scale of 0 to 100), Foxtail, Giant ([8]; 250 g ai/ha): 100 | Foxtail, Giant plant response rating [8, 15]: 100 | Foxtail, Giant plant response rating [8, 16]: 100 | Foxtail, Giant plant response rating [8, 19]: 100 | Plant response rating (scale of 0 to 100), Pigweed ([9]; 250 g ai/ha): 100 | Pigweed plant response rating [9, 15]: 100 | Pigweed plant response rating [9, 16]: 100 | Pigweed plant response rating [9, 19]: 100 | Plant response rating (scale of 0 to 100 where 0 is no effect and 100 is complete control), Soybean [10]: 20 | Soybean plant response rating ([10]; 62 g ai/ha, scale 0 to 100): 50 | Plant response rating, Soybean [10, 13]: 90 | Plant response rating, Soybean [10, 14]: 50 | Plant response rating (scale of 0 to 100 where 0 is no effect and 100 is complete control), Kochia [11]: 50 | Kochia plant response rating [11]: 85 | Plant response rating, Kochia [11, 13]: 90 | Plant response rating, Kochia [11, 14]: 85 | Plant response rating (scale of 0 to 100 where 0 is no effect and 100 is complete control), Oilseed Rape [12]: 5 | Oilseed Rape plant response rating [12]: 60 | Plant response rating, Oilseed Rape [12, 13]: 80 | Plant response rating, Oilseed Rape [12, 14]: 60

CCONC(=O)c1cc(CC)n(Cc2ccnc(OC(F)F)c2)n1 [Compound 131]
Plant response rating (scale of 0 to 100 where 0 is no effect and 100 is complete control), Ragweed [1]: 5 | Ragweed plant response rating [1]: 30 | Plant response rating, Ragweed [1, 13]: 85 | Plant response rating, Ragweed [1, 14]: 60 | Plant response rating (scale of 0 to 100), Oilseed Rape ([2]; 250 g ai/ha): 100 | Oilseed Rape plant response rating [2, 15]: 95 | Oilseed Rape plant response rating [2, 16]: 100 | Plant response rating, Oilseed Rape ([2]; 125 g ai/ha, 13 to 15 days): 98 | Plant response rating (scale of 0 to 100), Ragweed ([3]; 250 g ai/ha): 100 | Ragweed plant response rating [3, 15]: 75 | Ragweed plant response rating [3, 16]: 85 | Plant response rating, Ragweed ([3]; 125 g ai/ha, 13 to 15 days): 100 | Pigweed plant response rating [4, 20]: 100 | Pigweed plant response rating [4, 18]: 100 | Plant response rating (scale of 0 to 100 where 0 is no effect and 100 is complete control), Nutsedge, Yellow [5]: 5 | Nutsedge, Yellow plant response rating [5]: 5 | Plant response rating, Nutsedge, Yellow [5, 13]: 20 | Plant response rating, Nutsedge, Yellow [5, 14]: 10 | Plant response rating (scale of 0 to 100 where 0 is no effect and 100 is complete control), Oat, Wild [6]: 5 | Oat, Wild plant response rating [6]: 10 | Plant response rating, Oat, Wild [6, 13]: 10 | Plant response rating, Oat, Wild [6, 14]: 15 | Plant response rating, Barnyardgrass [7]: 50 | Plant response rating (scale of 0 to 100), Foxtail, Giant ([8]; 250 g ai/ha): 100 | Foxtail, Giant plant response rating [8, 15]: 85 | Foxtail, Giant plant response rating [8, 16]: 100 | Plant response rating, Foxtail, Giant ([8]; 125 g ai/ha, 13 to 15 days): 100 | Plant response rating (scale of 0 to 100), Pigweed ([9]; 250 g ai/ha): 100 | Pigweed plant response rating [9, 15]: 100 | Pigweed plant response rating [9, 16]: 100 | Plant response rating, Pigweed ([9]; 125 g ai/ha, 13 to 15 days): 100 | Plant response rating (scale of 0 to 100 where 0 is no effect and 100 is complete control), Soybean [10]: 20 | Soybean plant response rating ([10]; 62 g ai/ha, scale 0 to 100): 25 | Plant response rating, Soybean [10, 13]: 80 | Plant response rating, Soybean [10, 14]: 35 | Plant response rating (scale of 0 to 100 where 0 is no effect and 100 is complete control), Kochia [11]: 40 | Kochia plant response rating [11]: 70 | Plant response rating, Kochia [11, 13]: 75 | Plant response rating, Kochia [11, 14]: 70 | Plant response rating (scale of 0 to 100 where 0 is no effect and 100 is complete control), Oilseed Rape [12]: 30 | Oilseed Rape plant response rating [12]: 35 | Plant response rating, Oilseed Rape [12, 13]: 60 | Plant response rating, Oilseed Rape [12, 14]: 40
